Measured values: US20150343016A1, “CHEMICAL ENTITIES AND THERAPEUTIC USES THEREOF” (The Regents of the University of Colorado, a body corporate, priority 2010, published 2015)

Test system: 1586 Head and Neck Cancer cell line
Experiment: MTT assay, Bouvardin with ionizing radiation, 1586 (pre-treated)
Format: cell-based, human
Details: 1586 cells
Experimental: “Combination Index” computation. Combination Indices were calculated using CalcuSyn software (Biosoft), which uses the method of Chou and Talalay. This method first computes drug-induced effect using the Hill Equation: where E is the measured effect; C is the drug concentration; Emax is the full range of drug effect, usually at or near 100%; IC50 is the drug concentration producing the median effect of 50%; and n is the curve shape parameter describing the steepness of the concentration-effect relationship. The Chou and Talalay method then linearizes the Hill Equation by logarithmic transformation as: where fu is the fraction of cells left unaffected after drug exposure, fa is the fraction of cells affected by the exposure, C is the drug concentration used, Cm is the concentration to achieve the median effect, and n is the curve shape parameter. Cm and n are equivalent to IC50 and n, respectively, in the Hill Equation. The values of n (obtained from the slope), nlog(Cm) (obtained from the absolute value of the intercept), and, therefore, Cm are obtained by plotting log(fu−1−1) versus log(C). These numbers are then used to compute the Combination Index (CI) according to the formula: CI=(D)1/(Dx)1+(D)2/(Dx)2 (26). (Dx)1 and (Dx)2 are the doses required to achieve a given effect level for each treatment, i.e. a specified value of Fraction Affected or Fa. (D)1 and (D)2 are the doses of each treatment in a given combination which gives the same Fa.
The growth inhibitory effects of Bouvardin with ionizing radiation (IR) were evaluated using a modified tetrazolium salt (MTT) assay. In the MTT assay, 1,000 to 2,000 viable cells were plated in 100 uL of growth medium in 96-well plates (Corning, Ithaca, N.Y.). Following an overnight incubation, drug was added in varying concentrations and the plates were irradiated on the same day (co-treatment) or 24 hr later (pre-treatment) and incubated for 6 to 7 days. The tetrazolium salt was added at a concentration of 0.4 mg/mL to each well following the 6- to 7-day treatment. The plates were incubated with the salt for 4 hours at 37° C. At 4 hours, the medium was aspirated off, leaving the dark blue formazan product at the bottom of the wells. The reduced MTT product was solubilized by adding […] of 0.2 N HCl in 75% isopropanol, 23% MilliQ water to each well. Thorough mixing was done using a Titertek multichannel pipetman. The absorbency of each well was measured using an automated plate reader (Molecular Devices, Sunnyvale, Calif.). All experiments were done in triplicate.
MTT assays were used to determine the effect of Bouvardin (concentrations in uM) in combination with ionizing radiation (in Gy, X-axis). FIG. 14 depicts CI values for Bouvardin and radiation on 3 cell lines. Combination Index data from 3 different Head and Neck Cancer cell lines are shown. Black dashed lines represent a CI value of 1. CI values below 1 indicate synergy. 1586 and UM-SCC19 were pre-treated whereas HN31 was treated on the same day.

COc1ccc(C[C@H]2C(=O)N[C@H](C)C(=O)N(C)[C@@H]3C(=O)N(C)[C@@H](Cc4ccc(O)c(c4)Oc4ccc(cc4)[C@H]3O)C(=O)N[C@@H](C)C(=O)N[C@H](C)C(=O)N2C)cc1 (stereo in doubt) [Bouvardin, bouvardin]
Combination Index (Bouvardin 0.001 uM + 1 Gy IR): 1.553
Fraction Affected (Bouvardin 0.001 uM + 1 Gy IR): 0.254
Combination Index (Bouvardin 0.001 uM + 2 Gy IR): 0.903
Fraction Affected (Bouvardin 0.001 uM + 2 Gy IR): 0.23
Combination Index (Bouvardin 0.001 uM + 4 Gy IR): 1.112
Fraction Affected (Bouvardin 0.001 uM + 4 Gy IR): 0.503
Combination Index (Bouvardin 0.003 uM + 1 Gy IR): 1.898
Fraction Affected (Bouvardin 0.003 uM + 1 Gy IR): 0.264
Combination Index (Bouvardin 0.003 uM + 2 Gy IR): 1.383
Fraction Affected (Bouvardin 0.003 uM + 2 Gy IR): 0.303
Combination Index (Bouvardin 0.003 uM + 4 Gy IR): 0.753
Fraction Affected (Bouvardin 0.003 uM + 4 Gy IR): 0.51
Combination Index (Bouvardin 0.006 uM + 1 Gy IR): 1.626
Fraction Affected (Bouvardin 0.006 uM + 1 Gy IR): 0.301
Combination Index (Bouvardin 0.006 uM + 2 Gy IR): 1.285
Fraction Affected (Bouvardin 0.006 uM + 2 Gy IR): 0.371
Combination Index (Bouvardin 0.006 uM + 4 Gy IR): 0.732
Fraction Affected (Bouvardin 0.006 uM + 4 Gy IR): 0.634
Combination Index (Bouvardin 0.01 uM + 1 Gy IR): 0.433
Fraction Affected (Bouvardin 0.01 uM + 1 Gy IR): 0.45
Combination Index (Bouvardin 0.01 uM + 2 Gy IR): 1.482
Fraction Affected (Bouvardin 0.01 uM + 2 Gy IR): 0.518
Combination Index (Bouvardin 0.01 uM + 4 Gy IR): 1.348
Fraction Affected (Bouvardin 0.01 uM + 4 Gy IR): 0.604
Combination Index (Bouvardin 0.03 uM + 1 Gy IR): 1.211
Fraction Affected (Bouvardin 0.03 uM + 1 Gy IR): 0.537
Combination Index (Bouvardin 0.03 uM + 2 Gy IR): 0.841
Fraction Affected (Bouvardin 0.03 uM + 2 Gy IR): 0.628
Combination Index (Bouvardin 0.03 uM + 4 Gy IR): 1.284
Fraction Affected (Bouvardin 0.03 uM + 4 Gy IR): 0.624
Combination Index (Bouvardin 0.06 uM + 1 Gy IR): 0.898
Fraction Affected (Bouvardin 0.06 uM + 1 Gy IR): 0.584
Combination Index (Bouvardin 0.06 uM + 2 Gy IR): 0.962
Fraction Affected (Bouvardin 0.06 uM + 2 Gy IR): 0.677
Combination Index (Bouvardin 0.06 uM + 4 Gy IR): 1.284
Fraction Affected (Bouvardin 0.06 uM + 4 Gy IR): 0.813
Combination Index (Bouvardin 0.1 uM + 1 Gy IR): 1.815
Fraction Affected (Bouvardin 0.1 uM + 1 Gy IR): 0.607
Combination Index (Bouvardin 0.1 uM + 2 Gy IR): 3.214
Fraction Affected (Bouvardin 0.1 uM + 2 Gy IR): 0.68
Combination Index (Bouvardin 0.1 uM + 4 Gy IR): 2.639
Fraction Affected (Bouvardin 0.1 uM + 4 Gy IR): 0.712
Combination Index (Bouvardin 0.3 uM + 1 Gy IR): 2.656
Fraction Affected (Bouvardin 0.3 uM + 1 Gy IR): 0.682
Combination Index (Bouvardin 0.3 uM + 2 Gy IR): 2.382
Fraction Affected (Bouvardin 0.3 uM + 2 Gy IR): 0.731
Combination Index (Bouvardin 0.3 uM + 4 Gy IR): 3.756
Fraction Affected (Bouvardin 0.3 uM + 4 Gy IR): 0.708
Combination Index (Bouvardin 0.6 uM + 1 Gy IR): 4.194
Fraction Affected (Bouvardin 0.6 uM + 1 Gy IR): 0.688
Combination Index (Bouvardin 0.6 uM + 2 Gy IR): 4.765
Fraction Affected (Bouvardin 0.6 uM + 2 Gy IR): 0.743
Combination Index (Bouvardin 0.6 uM + 4 Gy IR): 4.11
Fraction Affected (Bouvardin 0.6 uM + 4 Gy IR): 0.745
Combination Index (Bouvardin 1 uM + 1 Gy IR): 1.553
Fraction Affected (Bouvardin 1 uM + 1 Gy IR): 0.254
Combination Index (Bouvardin 1 uM + 2 Gy IR): 0.903
Fraction Affected (Bouvardin 1 uM + 2 Gy IR): 0.23
Combination Index (Bouvardin 1 uM + 4 Gy IR): 1.112
Fraction Affected (Bouvardin 1 uM + 4 Gy IR): 0.503
